Structures are written as SMILES. Structures can show the parent of a compound that is named as a salt.

Broadly, the IC50 is the concentration that gives 50% inhibition.

Chain of Full length human recombinant PIKFYVE (Q9Y2I7 whole entry, the tested form may be a part): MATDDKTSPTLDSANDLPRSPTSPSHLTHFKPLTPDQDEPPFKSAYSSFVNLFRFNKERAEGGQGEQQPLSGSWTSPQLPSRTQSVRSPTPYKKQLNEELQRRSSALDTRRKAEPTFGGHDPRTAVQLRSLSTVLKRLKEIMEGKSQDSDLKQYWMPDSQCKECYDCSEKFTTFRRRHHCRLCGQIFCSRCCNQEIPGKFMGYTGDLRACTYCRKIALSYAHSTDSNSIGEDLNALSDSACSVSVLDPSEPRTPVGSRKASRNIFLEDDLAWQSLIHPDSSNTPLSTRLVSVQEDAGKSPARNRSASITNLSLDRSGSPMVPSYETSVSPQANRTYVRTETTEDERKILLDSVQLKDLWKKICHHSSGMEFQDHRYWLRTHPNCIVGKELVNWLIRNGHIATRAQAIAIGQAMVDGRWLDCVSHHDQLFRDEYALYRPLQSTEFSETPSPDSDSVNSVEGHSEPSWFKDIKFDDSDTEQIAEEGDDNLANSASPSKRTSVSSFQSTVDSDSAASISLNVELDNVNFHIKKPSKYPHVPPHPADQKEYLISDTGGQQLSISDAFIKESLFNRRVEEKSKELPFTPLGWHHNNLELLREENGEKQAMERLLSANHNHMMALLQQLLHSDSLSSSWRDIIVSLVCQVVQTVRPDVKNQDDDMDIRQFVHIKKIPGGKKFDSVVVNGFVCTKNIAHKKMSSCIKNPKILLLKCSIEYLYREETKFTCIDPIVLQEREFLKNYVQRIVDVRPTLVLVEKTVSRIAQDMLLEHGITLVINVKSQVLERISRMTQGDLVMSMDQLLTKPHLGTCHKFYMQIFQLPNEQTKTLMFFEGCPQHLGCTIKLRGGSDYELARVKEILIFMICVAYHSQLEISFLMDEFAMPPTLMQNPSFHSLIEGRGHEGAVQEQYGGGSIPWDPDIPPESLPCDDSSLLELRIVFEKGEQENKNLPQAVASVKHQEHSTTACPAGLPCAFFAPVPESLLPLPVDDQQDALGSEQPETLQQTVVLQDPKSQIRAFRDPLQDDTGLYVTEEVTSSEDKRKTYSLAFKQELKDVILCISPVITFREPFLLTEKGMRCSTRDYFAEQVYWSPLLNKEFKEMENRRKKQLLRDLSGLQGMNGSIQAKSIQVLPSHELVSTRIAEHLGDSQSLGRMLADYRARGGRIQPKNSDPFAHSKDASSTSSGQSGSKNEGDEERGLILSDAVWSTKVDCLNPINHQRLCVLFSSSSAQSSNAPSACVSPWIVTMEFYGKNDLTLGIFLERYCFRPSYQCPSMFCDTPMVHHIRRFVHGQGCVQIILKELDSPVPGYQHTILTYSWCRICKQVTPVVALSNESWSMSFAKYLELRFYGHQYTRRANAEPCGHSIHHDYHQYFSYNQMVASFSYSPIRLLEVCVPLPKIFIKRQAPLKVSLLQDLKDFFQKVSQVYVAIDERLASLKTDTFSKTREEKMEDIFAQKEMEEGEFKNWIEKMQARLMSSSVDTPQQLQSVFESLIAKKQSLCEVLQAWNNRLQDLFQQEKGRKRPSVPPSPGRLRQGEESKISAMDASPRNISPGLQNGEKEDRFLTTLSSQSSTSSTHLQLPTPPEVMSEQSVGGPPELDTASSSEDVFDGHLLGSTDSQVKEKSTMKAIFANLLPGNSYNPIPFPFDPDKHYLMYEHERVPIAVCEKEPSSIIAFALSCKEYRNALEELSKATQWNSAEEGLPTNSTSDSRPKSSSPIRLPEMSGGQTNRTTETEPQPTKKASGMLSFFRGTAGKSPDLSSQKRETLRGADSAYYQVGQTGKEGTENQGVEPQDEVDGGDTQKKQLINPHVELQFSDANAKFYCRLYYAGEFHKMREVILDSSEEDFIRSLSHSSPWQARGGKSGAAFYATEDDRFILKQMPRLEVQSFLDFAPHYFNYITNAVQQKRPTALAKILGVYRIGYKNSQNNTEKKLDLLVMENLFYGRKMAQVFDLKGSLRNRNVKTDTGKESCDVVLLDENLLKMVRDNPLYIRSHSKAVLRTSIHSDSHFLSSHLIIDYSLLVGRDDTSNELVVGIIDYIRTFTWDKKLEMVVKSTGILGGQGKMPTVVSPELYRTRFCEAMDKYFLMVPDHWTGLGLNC

The target of the test is Full length human recombinant PIKFYVE (Homo sapiens (Human), UniProt Q9Y2I7). As to the kind of experiment: Inhibition of PIKfyve (microfluidic electrophoresis kinase assay). It counts as biochemical. Conditions: 2 nM enzyme, PI3P/PS substrate, 3 h at room temperature, 12 concentrations. As to the method:
Full length human recombinant PIKFYVE expressed in baculovirus expression system as N-terminal GST-fusion protein (265 kDa) was obtained from Carna Biosciences (Kobe, Japan). The kinase substrate was prepared by mixing and sonicating fluorescently-labeled phosphatidylinositol 3-phosphate (PI3P) with phospho-L-serine (PS) at a 1:10 ratio in 50 mM HEPES buffer pH7.5.
The kinase reactions were assembled in 384-well plates (Greiner) in a total volume of […] as follows. Kinase protein was pre-diluted in an assay buffer comprising 25 mM HEPES, pH 7.5, 1 mM DTT, 2.5 mM MgCl2, and 2.5 mM MnCl2, and 0.005% Triton X-100, and dispensed into a 384-well plate (10 μL per well). Test compounds were serially pre-diluted in DMSO and added to the protein samples by acoustic dispensing (Labcyte Echo). The concentration of DMSO was equalized to 1% in all samples. All test compounds were tested at 12 concentrations. Apilimod was used as a reference compound and was tested in identical manner in each assay plate. Control samples (0%-inhibition, in the absence of inhibitor, DMSO only) and 100%-inhibition (in the absence of enzyme) were assembled in replicates of four and were used to calculate %-inhibition in the presence of compounds. The reactions were initiated by addition of 10 μL of 2× PI3P/PS substrate supplemented with ATP. The final concentration of enzyme was 2 nM, the final concentration of ATP was 10 mM, and the final concentration of PI3P/PS substrate was 1 μM (PI3P). The kinase reactions were allowed to proceed for 3 h at room temperature. Following incubation, the reactions were quenched by addition of […] of termination buffer (100 mM HEPES, pH 7.5, 0.01% Triton X-100, 20 mM EDTA). Terminated plates were analyzed on a microfluidic electrophoresis instrument (Caliper LabChip® 3000, Caliper Life Sciences/Perkin Elmer). The change in the relative fluorescence intensity of the PI (3) P substrate and PI (3,5) P product peaks was measured. The activity in each test sample was determined as the product to sum ratio (PSR): P/(S+P), where P is the peak height of the product, and S is the peak height of the substrate. Percent inhibition (Pinh) was determined using the following equation: Pinh=(PSR0% inh−PSRcompound)/(PSR0% inh−PSR100% inh)*100 in which PSRcompound is the product/sum ratio in the presence of compound, PSR0% inh is the product/sum ratio in the absence of compound, and the PSR100% inh is the product/sum ratio in the absence of the enzyme.
Take `Cc1cccc(-c2ccn(-c3cc(N4CCOCC4)n4nc(C(=O)NC5COC5)cc4n3)n2)c1` [Example 42, 7-morpholino-N-(oxetan-3-yl)-5-(3-(m-tolyl)-1H-pyrazol-1-yl)pyrazolo[1,5-a]pyrimidine-2-carboxamide]: the IC50 was 63.3 nM. As for `Cc1cccc(-c2ccn(-c3cc(N4CCOCC4)n4nc(C(=O)N(C)C)cc4n3)n2)c1` [Example 24, N,N-dimethyl-7-morpholino-5-(3-(m-tolyl)-1H-pyrazol-1-yl)pyrazolo[1,5-a]pyrimidine-2-carboxamide], the IC50 came to 276 nM. Regarding `Nc1cc(-c2ccccc2)nn1-c1cc(N2CCOCC2)n2nc(-c3ccncc3)cc2n1` [Example 7, 1-(7-morpholino-2-(pyridin-4-yl)pyrazolo[1,5-a]pyrimidin-5-yl)-3-phenyl-1H-pyrazol-5-amine], the half-inhibitory concentration (IC50) was 38.4 nM.

Turning to `Cc1cccc(-c2ccn(-c3cc(N4CCOCC4)n4nc(-c5cc(C)n(CCN(C)C)n5)cc4n3)n2)c1` [Compound 91, N,N-dimethyl-2-[5-methyl-3-[7-morpholino-5-[3-(m-tolyl)pyrazol-1-yl]pyrazolo[1,5-a]pyrimidin-2-yl]pyrazol-1-yl]ethanamine], the IC50 amounted to 9.4 nM. Consider `Cc1cccc(-c2ccn(-c3cc(N4CCOCC4)n4nc(-c5cn[nH]c5)cc4n3)n2)c1` [Compound 113, 4-[5-[3-(m-tolyl)pyrazol-1-yl]-2-(1H-pyrazol-4-yl)pyrazolo[1,5-a]pyrimidin-7-yl]morpholine], for which the IC50 turned out to be 2.5 nM. With `Cc1cccc(-c2cnn(-c3cc(N4CCOCC4)n4nc(-c5cnc(N)nc5)cc4n3)c2)c1` [Compound 60, 5-[7-morpholino-5-[4-(m-tolyl)pyrazol-1-yl]pyrazolo[1,5-a]pyrimidin-2-yl]pyrimidin-2-amine], the 50% inhibitory concentration (IC50) was found to be 6120 nM. Regarding `Cc1cccc(-c2ccn(-c3cc(N4CCOCC4)n4nc(C(=O)NC(C)C)cc4n3)n2)c1` [Example 38, N-isopropyl-7-morpholino-5-(3-(m-tolyl)-1H-pyrazol-1-yl)pyrazolo[1,5-a]pyrimidine-2-carboxamide], the concentration for half-maximal inhibition (IC50) stood at 25.7 nM. With `Cc1cc(-c2cc3nc(-n4ccc(-c5ccccc5)n4)cc(N4CCOCC4)n3n2)nn1C` [Compound 86, 4-[2-(1,5-dimethylpyrazol-3-yl)-5-(3-phenylpyrazol-1-yl)pyrazolo[1,5-a]pyrimidin-7-yl]morpholine], the half-inhibitory concentration (IC50) came to 32.2 nM. Take `O=C(NCC1COC1)c1cc2nc(-n3ccc(-c4ccccc4)n3)cc(N3CCOCC3)n2n1` [Compound 76, 7-morpholino-N-(oxetan-3-ylmethyl)-5-(3-phenylpyrazol-1-yl)pyrazolo[1,5-a]pyrimidine-2-carboxamide]: the IC50 worked out at 1590 nM. The value for `c1ccc(-c2ccn(-c3cc(N4CCOCC4)n4nc(-c5nccs5)cc4n3)n2)cc1` [Compound 114, 4-[5-(3-phenylpyrazol-1-yl)-2-thiazol-2-yl-pyrazolo[1,5-a]pyrimidin-7-yl]morpholine] was 100 nM; that for `Cc1cccc(-c2ccn(-c3cc(N4CCOCC4)n4nc(-c5cc(C)n(CCN(C)C)n5)cc4n3)n2)n1` [Compound 94, N,N-dimethyl-2-[5-methyl-3-[5-[3-(6-methyl-2-pyridyl)pyrazol-1-yl]-7-morpholino-pyrazolo[1,5-a]pyrimidin-2-yl]pyrazol-1-yl]ethanamine] was 4390 nM. Take `Cc1cccc(-c2ccn(-c3cc(N4CCOCC4)n4nc(C(=O)N5CCCC5)cc4n3)n2)c1` [Example 29, (7-morpholino-5-(3-(m-tolyl)-1H-pyrazol-1-yl)pyrazolo[1,5-a]pyrimidin-2-yl) (pyrrolidin-1-yl)methanone]: the IC50 came out at 94.6 nM.

As to `c1ccc(-c2ccn(-c3cc(N4CCOCC4)n4nc(-c5cnccn5)cc4n3)n2)cc1` [Compound 82, 4-[5-(3-phenylpyrazol-1-yl)-2-pyrazin-2-yl-pyrazolo[1,5-a]pyrimidin-7-yl]morpholine], the 50% inhibitory concentration (IC50) came to 169 nM. Take `COCCNC(=O)c1cc2nc(-n3ccc(-c4cccc(C)c4)n3)cc(N3CCOCC3)n2n1` [Example 23, N-(2-methoxyethyl)-7-morpholino-5-(3-(m-tolyl)-1H-pyrazol-1-yl)pyrazolo[1,5-a]pyrimidine-2-carboxamide]: the IC50 was determined as 81.5 nM.

For `Cc1cccc(-c2ccn(-c3cc(N4CCOCC4)n4nc(-c5cc(C)n(C)n5)cc4n3)n2)c1` [Compound 87, 4-[2-(1,5-dimethylpyrazol-3-yl)-5-[3-(m-tolyl)pyrazol-1-yl]pyrazolo[1,5-a]pyrimidin-7-yl]morpholine], the IC50 worked out at 0.9 nM. The value for `Cc1cccc(-c2cnn(-c3cc(N4CCOCC4)n4nc(-c5cncnc5)cc4n3)c2)c1` [Compound 58, 4-[5-[4-(m-tolyl)pyrazol-1-yl]-2-pyrimidin-5-yl-pyrazolo[1,5-a]pyrimidin-7-yl]morpholine] was > 20000 nM; that for `c1ccc(-c2cc(Nc3cc(N4CCOCC4)n4nc(-c5ccncc5)cc4n3)n[nH]2)cc1` [Example 2, 7-morpholino-N-(5-phenyl-1H-pyrazol-3-yl)-2-(4-pyridyl)pyrazolo[1,5-a]pyrimidin-5-amine] was 967 nM.

As to `Cc1cc(-c2cc3nc(-n4ccc(-c5ccccc5)n4)cc(N4CCOCC4)n3n2)n(C)n1` [Compound 85, 4-[2-(2,5-dimethylpyrazol-3-yl)-5-(3-phenylpyrazol-1-yl)pyrazolo[1,5-a]pyrimidin-7-yl]morpholine], the IC50 is 215 nM. The value for `c1ccc(-c2ccn(-c3cc(N4CCOCC4)n4nc(-c5cccnc5)cc4n3)n2)cc1` [Compound 64, 4-[5-(3-phenylpyrazol-1-yl)-2-(3-pyridyl)pyrazolo[1,5-a]pyrimidin-7-yl]morpholine] was 68.1 nM. With `c1ccc(-c2ccn(-c3cc(N4CCOCC4)n4nc(-c5ccncc5)cc4n3)n2)cc1` [Example 13, 4-[5-(3-phenylpyrazol-1-yl)-2-(4-pyridyl)pyrazolo[1,5-a]pyrimidin-7-yl]morpholine], the IC50 came to 207 nM. Regarding `Cc1cccc(-c2ccn(-c3cc(N4CCOCC4)n4nc(C(=O)N5CCC5)cc4n3)n2)c1` [Example 28, azetidin-1-yl(7-morpholino-5-(3-(m-tolyl)-1H-pyrazol-1-yl)pyrazolo[1,5-a]pyrimidin-2-yl)methanone], the IC50 came out at 137 nM. Consider `Cc1cc(Nc2cc(N3CCOCC3)n3nc(-c4ccncc4)cc3n2)n[nH]1` [Example 5, N-(5-methyl-1H-pyrazol-3-yl)-7-morpholino-2-(4-pyridyl)pyrazolo[1,5-a]pyrimidin-5-amine], for which the IC50 was > 10000 nM. Turning to `C[C@@H](NC(=O)c1cc2nc(-n3ccc(-c4ccccc4)n3)cc(N3CCOCC3)n2n1)C1CC1` [Compound 74, N-[(1R)-1-cyclopropylethyl]-7-morpholino-5-(3-phenylpyrazol-1-yl)pyrazolo[1,5-a]pyrimidine-2-carboxamide], the concentration for half-maximal inhibition (IC50) amounted to 353 nM. As for `O=C(NC1CCCC1)c1cc2nc(-n3ccc(-c4ccccc4)n3)cc(N3CCOCC3)n2n1` [Compound 77, N-cyclopentyl-7-morpholino-5-(3-phenylpyrazol-1-yl)pyrazolo[1,5-a]pyrimidine-2-carboxamide], the IC50 was found to be 184 nM.

`CCC(=O)NCc1cc2nc(-n3ccc(-c4ccccc4)n3)cc(N3CCOCC3)n2n1` [Compound 90]: the IC50 turned out to be 2160 nM. Consider `c1ccc(-c2ccn(-c3cc(N4CCOCC4)n4nc(-c5ccccn5)cc4n3)n2)cc1` [Compound 72, 4-[5-(3-phenylpyrazol-1-yl)-2-(2-pyridyl)pyrazolo[1,5-a]pyrimidin-7-yl]morpholine], for which the IC50 came out at 281 nM. As for `Cc1cccc(-c2ccn(-c3cc(N4CCOCC4)n4nc(C(=O)N[C@H]5CCN(C)C5)cc4n3)n2)c1` [Compound 48, N-[(3S)-1-methylpyrrolidin-3-yl]-7-morpholino-5-[3-(m-tolyl)pyrazol-1-yl]pyrazolo[1,5-a]pyrimidine-2-carboxamide], the IC50 came out at 41.3 nM. In the case of `Cc1ccc(-c2cc(Nc3cc(N4CCOCC4)n4nc(-c5ccncc5)cc4n3)[nH]n2)cc1` [Example 1, 7-morpholino-2-(pyridin-4-yl)-N-(3-(p-tolyl)-1H-pyrazol-5-yl)pyrazolo[1,5-a]pyrimidin-5-amine, hydrogen chloride salt], the IC50 is 2590 nM. Take `Cc1cccc(-c2ccn(-c3cc(N4CCOCC4)n4nc(C(=O)N5CCN(C)CC5)cc4n3)n2)c1` [Example 32, (4-methylpiperazin-1-yl) (7-morpholino-5-(3-(m-tolyl)-1H-pyrazol-1-yl)pyrazolo[1,5-a]pyrimidin-2-yl)methanone]: the IC50 was 254 nM.

These data come from patent US12486274B2, “Substituted pyrazolo-pyrimidines and uses thereof” (Verge Analytics, Inc., priority 2020, dated 2025).
